Test results: ChEMBL document CHEMBL5518193, “Discovery of N-alkyl-N-benzyl thiazoles as novel TRPC antagonists for the treatment of glioblastoma multiforme” (Eur J Med Chem, 2024)

What was measured:
[1] = molecular target: T1, Short transient receptor potential channel 5 (Homo sapiens, UniProt Q9UL62); assay: Antagonist activity at TRPC5 (unknown origin) assessed as inhibition of channel activity
T1 sequence (Q9UL62 whole entry): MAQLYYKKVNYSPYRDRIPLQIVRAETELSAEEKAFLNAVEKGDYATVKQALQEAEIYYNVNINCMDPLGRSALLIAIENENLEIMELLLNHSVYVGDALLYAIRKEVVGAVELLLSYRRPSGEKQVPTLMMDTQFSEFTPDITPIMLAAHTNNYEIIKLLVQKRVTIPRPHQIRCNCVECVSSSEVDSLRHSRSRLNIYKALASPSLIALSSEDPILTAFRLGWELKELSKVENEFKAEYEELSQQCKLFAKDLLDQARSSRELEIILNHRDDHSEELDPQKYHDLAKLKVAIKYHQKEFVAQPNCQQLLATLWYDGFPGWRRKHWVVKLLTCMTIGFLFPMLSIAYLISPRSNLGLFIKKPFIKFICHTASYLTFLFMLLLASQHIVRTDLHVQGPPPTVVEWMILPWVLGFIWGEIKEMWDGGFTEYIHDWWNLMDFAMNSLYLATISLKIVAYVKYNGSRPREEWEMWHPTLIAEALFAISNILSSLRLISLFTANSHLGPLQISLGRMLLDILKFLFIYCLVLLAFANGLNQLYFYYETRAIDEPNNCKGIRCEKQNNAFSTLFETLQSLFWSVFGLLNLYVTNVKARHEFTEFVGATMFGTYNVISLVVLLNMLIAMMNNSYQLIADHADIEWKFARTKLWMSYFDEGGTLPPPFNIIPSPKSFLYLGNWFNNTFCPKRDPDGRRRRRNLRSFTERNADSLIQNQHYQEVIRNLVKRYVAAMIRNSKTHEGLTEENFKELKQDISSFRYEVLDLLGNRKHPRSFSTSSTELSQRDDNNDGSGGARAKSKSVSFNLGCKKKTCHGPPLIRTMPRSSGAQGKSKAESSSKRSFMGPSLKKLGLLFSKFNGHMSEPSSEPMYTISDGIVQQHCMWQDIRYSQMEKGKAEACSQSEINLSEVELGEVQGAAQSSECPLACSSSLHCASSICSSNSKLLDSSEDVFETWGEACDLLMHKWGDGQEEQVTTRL

[2] = molecular target: T2, Short transient receptor potential channel 6 (Homo sapiens, UniProt Q9Y210); assay: Antagonist activity at TRPC6 (unknown origin) assessed as inhibition of channel activity
T2 sequence (Q9Y210 whole entry): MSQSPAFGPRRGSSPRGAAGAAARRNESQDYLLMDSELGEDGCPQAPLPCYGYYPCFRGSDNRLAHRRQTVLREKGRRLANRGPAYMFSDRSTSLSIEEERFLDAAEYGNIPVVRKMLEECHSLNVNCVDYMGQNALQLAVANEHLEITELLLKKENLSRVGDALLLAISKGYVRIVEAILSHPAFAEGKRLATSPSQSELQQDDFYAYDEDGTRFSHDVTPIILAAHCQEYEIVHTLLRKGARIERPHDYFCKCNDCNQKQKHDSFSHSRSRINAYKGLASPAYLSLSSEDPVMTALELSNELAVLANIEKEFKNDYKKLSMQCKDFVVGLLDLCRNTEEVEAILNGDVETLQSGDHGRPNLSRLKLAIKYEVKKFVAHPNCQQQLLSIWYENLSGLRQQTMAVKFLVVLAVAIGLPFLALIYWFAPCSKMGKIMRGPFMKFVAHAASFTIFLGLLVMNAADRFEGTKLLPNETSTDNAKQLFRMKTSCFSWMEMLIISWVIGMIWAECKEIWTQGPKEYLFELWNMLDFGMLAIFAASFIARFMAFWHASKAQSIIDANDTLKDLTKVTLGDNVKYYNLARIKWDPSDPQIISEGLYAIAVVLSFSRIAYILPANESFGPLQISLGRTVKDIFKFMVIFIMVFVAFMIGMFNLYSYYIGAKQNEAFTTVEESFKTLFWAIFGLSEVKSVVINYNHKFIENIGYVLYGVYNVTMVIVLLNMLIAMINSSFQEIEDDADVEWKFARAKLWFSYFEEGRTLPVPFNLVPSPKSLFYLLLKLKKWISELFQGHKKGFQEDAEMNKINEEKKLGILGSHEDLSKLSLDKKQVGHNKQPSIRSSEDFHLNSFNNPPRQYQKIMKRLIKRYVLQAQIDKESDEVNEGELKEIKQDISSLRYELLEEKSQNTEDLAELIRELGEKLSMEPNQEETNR

- IC50 [1]: 10.6 µM
- IC50 [2]: 7.2 µM
Compound: O=C1O/C(=C/Br)CCC1c1cccc2ccccc12 (configuration not stated) [BROMOENOL LACTONE]
